A word on the IC50: it is the concentration at which inhibition is half-maximal.

This test deals with T1, MAGL (Homo sapiens, UniProt Q99685).
T1 construct: Proteomes (human prefrontal cortex or cell membrane fractions); from tissue
T1 sequence (Q99685 1-303): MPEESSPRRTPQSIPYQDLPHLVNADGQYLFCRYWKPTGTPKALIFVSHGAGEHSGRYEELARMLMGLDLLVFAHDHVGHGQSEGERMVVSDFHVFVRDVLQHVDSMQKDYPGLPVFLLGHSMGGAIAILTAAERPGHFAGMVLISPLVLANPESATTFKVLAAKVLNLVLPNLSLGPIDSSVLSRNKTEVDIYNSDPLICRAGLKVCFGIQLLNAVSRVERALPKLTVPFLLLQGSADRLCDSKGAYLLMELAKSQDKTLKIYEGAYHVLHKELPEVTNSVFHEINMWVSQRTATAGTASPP
The experiment in a line: In vitro competitive activity-based protein profiling (gel-based, FP-Rh or HT-01 probe). The test is classed as biochemical. On the procedure: Compounds are tested to assess their MAGL and serine hydrolase activity using the following in vitro and in vivo assays.
Proteomes (human prefrontal cortex or cell membrane fractions) (50 μL, 1.0 mg/mL total protein concentration) were preincubated with varying concentrations of inhibitors at 37° C. After 30 min, FP—Rh or HT-01 (1.0 μL, 50 μM in DMSO) was added and the mixture was incubated for another 30 min at room temperature. Reactions were quenched with SDS loading buffer (15 μL-4×) and run on SDS-PAGE.

Where [1] appears, read: PC3 proteome, read-out: IC50 MGLL PC3 (Human).
Where [2] appears, read: PFC (prefrontal cortex) proteome.
[3] abbreviates: PFC (prefrontal cortex) proteome, read-out: IC50 MGLL PFC (Human).

The structures appear in SMILES notation. Like-named read-outs stand apart in the source and are kept apart here.

`O=C(O)CN1CCN(c2cc(CN3CCCC34CCN(C(=O)OC(C(F)(F)F)C(F)(F)F)CC4)cc(C(F)(F)F)c2)CC1` [Example 2, 2-(4-(3-((8-(((1,1,1,3,3,3-Hexafluoropropan-2-yl)oxy)carbonyl)-1,8-diazaspiro[4.5]decan-1-yl)methyl)-5-(trifluoromethyl)phenyl)piperazin-1-yl)acetic acid]: the IC50 by setting is: under setting [1], less than 100 nM; under setting [3], less than 100 nM. Moreover, the “% Inh MGLL PFC (Human, μM)” value under setting [2] is given as “### (### is ≥ 75%)”. Consider `O=C(O)C1CCN(Cc2cc(Cl)cc(C(=O)N3CCCC34CCN(C(=O)OC(C(F)(F)F)C(F)(F)F)CC4)c2)CC1` [Example 11, 1-(3-Chloro-5-(8-(((1,1,1,3,3,3-hexafluoropropan-2-yl)oxy)carbonyl)-1,8-diazaspiro[4.5]decane-1-carbonyl)benzyl)piperidine-4-carboxylic acid], for which the IC50 under setting [1] was less than 100 nM. Moreover, the “% Inh MGLL PFC (Human, μM)” value under setting [2] is listed as “### (### is ≥ 75%)”.

For `N#Cc1ccc(C(=O)N2CCC3(CCN(C(=O)OC(C(F)(F)F)C(F)(F)F)CC3)C2)cc1C(F)(F)F` [Example 12, 1,1,1,3,3,3-Hexafluoropropan-2-yl 2-(4-cyano-3-(trifluoromethyl)benzoyl)-2,8-diazaspiro[4.5]decane-8-carboxylate], the IC50 under setting [1] was less than 100 nM.

`O=C(O)c1cc(CN2CC3(CCN(C(=O)OC(C(F)(F)F)C(F)(F)F)CC3)C2)ccc1C(F)(F)F` [Example 21, 5-((7-(((1,1,1,3,3,3-Hexafluoropropan-2-yl)oxy)carbonyl)-2,7-diazaspiro[3.5]nonan-2-yl)methyl)-2-(trifluoromethyl)benzoic acid]: the IC50 under setting [1] is less than 100 nM. Same read-out and setting: under `CC1(C(=O)O)CN(c2cc(CN3CC4(CCN(C(=O)OC(C(F)(F)F)C(F)(F)F)CC4)C3)cc(C(F)(F)F)c2)CCO1` (stereo not shown) [Example 22, 4-(3-((7-(((1,1,1,3,3,3-Hexafluoropropan-2-yl)oxy)carbonyl)-2,7-diazaspiro[3.5]nonan-2-yl)methyl)-5-(trifluoromethyl)phenyl)-2-methylmorpholine-2-carboxylic acid] stands less than 100 nM; under `CN(Cc1ccc(C(F)(F)F)cc1-c1nnn[nH]1)C1(C)CCN(C(=O)OC(C(F)(F)F)C(F)(F)F)CC1` [Example 24, 1,1,1,3,3,3-Hexafluoropropan-2-yl 4-((2-(1H-tetrazol-5-yl)-4-(trifluoromethyl)benzyl)(methyl)amino)-4-methylpiperidine-1-carboxylate], less than 100 nM. Regarding `CC1(OCc2cc(CN3CCC(C(=O)O)CC3)cc(C(F)(F)F)c2)CCN(C(=O)OC(C(F)(F)F)C(F)(F)F)CC1` [Example 25, 1-(3-(((1-(((1,1,1,3,3,3-Hexafluoropropan-2-yl)oxy)carbonyl)-4-methylpiperidin-4-yl)oxy)methyl)-5-(trifluoromethyl)benzyl)piperidine-4-carboxylic acid], the IC50 under setting [1] is less than 100 nM. The “% Inh MGLL PFC (Human, μM)” value under setting [2] is “### (### is ≥ 75%)”. On to `CN(Cc1ccc(C(F)(F)F)cc1N1CCN(CC(=O)O)CC1)C1(C)CCN(C(=O)OC(C(F)(F)F)C(F)(F)F)CC1` [Example 26, 2-(4-(2-(((1-(((1,1,1,3,3,3-Hexafluoropropan-2-yl)oxy)carbonyl)-4-methylpiperidin-4-yl)(methyl)amino)methyl)-5-(trifluoromethyl)phenyl)piperazin-1-yl)acetic acid], for which the IC50 runs as follows: under setting [1], less than 100 nM; under setting [3], less than 100 nM. The “% Inh MGLL PFC (Human, μM)” value under setting [2] is recorded as “### (### is ≥ 75%)”. For `CN(Cc1ccc(C(F)(F)F)cc1N1CC2CC1CN2CC(=O)O)C1(C)CCN(C(=O)OC(C(F)(F)F)C(F)(F)F)CC1` (stereo not shown) [Example 27, 2-(5-(2-(((1-(((1,1,1,3,3,3-Hexafluoropropan-2-yl)oxy)carbonyl)-4-methylpiperidin-4-yl)(methyl)amino)methyl)-5-(trifluoromethyl)phenyl)-2,5-diazabicyclo[2.2.1]heptan-2-yl)acetic acid], the IC50 is less than 100 nM under setting [1] and less than 100 nM under setting [3].
